Assay results published in ChEMBL document CHEMBL1201862, “PubChem BioAssay data set” (2004).
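Cultured in 96-well plates, cells were exposed to test compound for 48 hours across five concentrations. GI50 = concentration required for 50% inhibition of growth.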 The source made the active and inactive calls. Rule as the data show it: active = GI50 up to about 1.1 µM and inactive = higher.

Columns and labels:
Experiment in all cases: growth of human tumour cells (NCI), 48 h
HCT-116 = system: HCT-116
HCC 2998 = system: HCC 2998
EKVX = system: EKVX
KM12 = system: KM12
SK-MEL-2 = system: SK-MEL-2
U-251 = system: U-251
PC-3 = system: PC-3
DU-145 = system: DU-145
MCF7 = system: MCF7
SK-MEL-5 = system: SK-MEL-5
SNB-19 = system: SNB-19
CAKI-1 = system: CAKI-1
SNB-75 = system: SNB-75
LOX IMVI = system: LOX IMVI
SR = system: SR
SF-295 = system: SF-295
MDA-MB-435 = system: MDA-MB-435
NCI-H23 = system: NCI-H23
IGROV-1 = system: IGROV-1

Row | Compound | GI50 (HCT-116) | GI50 (HCC 2998) | GI50 (EKVX) | GI50 (KM12) | GI50 (SK-MEL-2) | GI50 (U-251) | GI50 (PC-3) | GI50 (DU-145) | GI50 (MCF7) | GI50 (SK-MEL-5) | GI50 (SNB-19) | GI50 (CAKI-1) | GI50 (SNB-75) | GI50 (LOX IMVI) | GI50 (SR) | GI50 (SF-295) | GI50 (MDA-MB-435) | GI50 (NCI-H23) | GI50 (IGROV-1)
1 | NCc1ccccc1.O=C(O)NCc1ccccc1 | 25.1 µM (inactive) | 22.5 µM (inactive) | 30.6 µM (inactive) | 26.2 µM (inactive) | 8.91 µM (inactive) | 26.9 µM (inactive) | 20.8 µM (inactive) | 42.8 µM (inactive) | 34.8 µM (inactive) | 16.8 µM (inactive) | 40.3 µM (inactive) | 42.7 µM (inactive) | 27.4 µM (inactive) | 30.3 µM (inactive) | 0.682 µM (active) | 31.2 µM (inactive) | 31.5 µM (inactive) | 27.5 µM (inactive) | 26.1 µM (inactive)
2 | CN(C)c1ccc(Cc2cc3c(O)ccc(O)c3cc(Cc3ccc(N(C)C)cc3)c2=O)cc1 | 11.7 µM (inactive) | 23 µM (inactive) | 19 µM (inactive) | 18.6 µM (inactive) | 36.6 µM (inactive) | 20 µM (inactive) | 15.4 µM (inactive) | 26.9 µM (inactive) | 17.3 µM (inactive) | 19.2 µM (inactive) | 29.4 µM (inactive) | 6.46 µM (inactive) | > 55.8 µM (inactive) | 17.7 µM (inactive) | 3.08 µM (inactive) | 34.4 µM (inactive) | 15.1 µM (inactive) | 22.4 µM (inactive) | 16.1 µM (inactive)
3 | CC(C)(C)OC(=O)N1CCc2c(n(C/C=C/c3ccccc3)[nH]c2=O)C1 | > 100 µM (inactive) | > 100 µM (inactive) | > 83.8 µM (inactive) | > 100 µM (inactive) | > 100 µM (inactive) | > 100 µM (inactive) | > 100 µM (inactive) | > 87.9 µM (inactive) | 65.3 µM (inactive) | 34.4 µM (inactive) | > 100 µM (inactive) | > 100 µM (inactive) | > 100 µM (inactive) | > 100 µM (inactive) | 35.5 µM (inactive) | > 100 µM (inactive) | > 100 µM (inactive) | > 100 µM (inactive) | > 100 µM (inactive)
4 | CNC(=O)CC1NC(=O)c2csc(n2)-c2ccc(-c3nc(C4=NC(C(=O)N5CCCC5C(N)=O)CO4)cs3)nc2-c2csc(n2)-c2csc(n2)C(C(C)C)NC(=O)CNC(=O)c2csc(n2)C(C(C)C)NC(=O)c2nc1sc2C (configuration not stated) | 0.00114 µM (active) | 0.00762 µM (active) | 2.38 µM (inactive) | 0.0171 µM (active) | 0.0155 µM (active) | 0.0025 µM (active) | 0.00489 µM (active) | 0.0038 µM (active) | > 25 µM (inactive) | 0.00289 µM (active) | 0.043 µM (active) | 0.436 µM (active) | 0.00203 µM (active) | 0.00191 µM (active) | > 25 µM (inactive) | 0.021 µM (active) | > 25 µM (inactive) | 0.00239 µM (active) | 0.00175 µM (active)
5 | Cc1cn([C@@H]2C[C@@H]2CO)c(=O)[nH]c1=O | > 100 µM (inactive) | > 100 µM (inactive) | > 100 µM (inactive) | > 100 µM (inactive) | > 100 µM (inactive) | > 100 µM (inactive) | > 100 µM (inactive) | > 100 µM (inactive) | > 100 µM (inactive) | > 100 µM (inactive) | > 100 µM (inactive) | > 100 µM (inactive) | > 100 µM (inactive) | > 100 µM (inactive) | > 100 µM (inactive) | – | > 100 µM (inactive) | > 100 µM (inactive) | > 100 µM (inactive)
6 | O=C1OC2C(O)COC2(O)C1(O)C(C[N+](=O)[O-])c1ccc(Cl)cc1 (configuration not stated) | 1.79 µM (inactive) | 6.78 µM (inactive) | 23.6 µM (inactive) | 7.36 µM (inactive) | 15.7 µM (inactive) | 9.29 µM (inactive) | 17 µM (inactive) | 18.2 µM (inactive) | 1.98 µM (inactive) | 8.17 µM (inactive) | 15.2 µM (inactive) | 15.5 µM (inactive) | 9.35 µM (inactive) | 2.69 µM (inactive) | 4.26 µM (inactive) | 12.1 µM (inactive) | 1.97 µM (inactive) | 6.95 µM (inactive) | 9.38 µM (inactive)
7 | COC(=O)c1ccc2n1C1CC3CC(CC2C3)C1 | 42.6 µM (inactive) | 91.2 µM (inactive) | > 100 µM (inactive) | > 100 µM (inactive) | 70.6 µM (inactive) | > 100 µM (inactive) | 40 µM (inactive) | > 100 µM (inactive) | > 100 µM (inactive) | 30.9 µM (inactive) | > 100 µM (inactive) | > 100 µM (inactive) | > 100 µM (inactive) | > 100 µM (inactive) | 46.3 µM (inactive) | > 100 µM (inactive) | > 100 µM (inactive) | 90.8 µM (inactive) | > 100 µM (inactive)
